Experimental findings from publication PMC8055447 (Journal of medicinal chemistry, 2019) are described below.

Data set [1] concerns EV-D68 US/KY/14-18953 virus. Briefly: Viral CPE assay, EV-D68 US/KY/14-18953 in RD cells. The class given is cell-based, enterovirus D68 (EV-D68). The conditions noted are these: EV-D68 US/KY/14-18953, RD cells.
Data set [2] relates to EV-D68 viral capsid protein VP1 expression. Briefly: Immunofluorescence imaging of viral capsid protein VP1 in infected RD cells. The settings on record: 9 hpi; for VP1 protein expression (immunofluorescence imaging): 1 μM, US/KY/14-18953, MOI = 1. The class given is cell-based.
Data set [3] shares this test system. Briefly: Western blot of viral capsid protein VP1 in infected RD cells. Type of data set: cell-based. The settings on record: 9 hpi, US/KY/14-18953, MOI = 1.
The subject of data set [4] is sodium channels. The conditions noted are these: from 2 μM to 50 μM, rat DRG neurons, overnight incubation, veratridine 30 μM.

As to `O=C(NCCN1CCCC1)c1cc(-c2cccs2)nc2ccccc12` [Compound 12c, N-[2-(pyrrolidin-1-yl)ethyl]-2-(thiophen-2-yl)quinoline-4-carboxamide], the “SI (selectivity index, CC50/EC50)” value in data set [1] is given as over 600. In data set [2], the “VP1 protein expression (immunofluorescence imaging)” value (“VP1 protein expression” for short) is “completely blocked”. Moreover, the “VP1 expression (western blot)” value in data set [3] (1 μM) is “completely blocked”.
Take `CN(C)CCNC(=O)c1cc(-c2ccccc2)nc2ccccc12` [Compound 10a, N-[2-(dimethylamino)ethyl]-2-phenylquinoline-4-carboxamide]: the “VP1 protein expression” value in data set [2] is on record as “completely blocked”. The “VP1 expression (western blot)” value in data set [3] (1 μM) is “completely blocked”. Also, the “inhibition of sodium current conductance” value in data set [4] is given as “minimal to no effect”.
Consider `CCCCOc1cc(C(=O)NCCN(CC)CC)c2ccccc2n1` [Dibucaine, dibucaine, reference compound], for which the “fluorescent signal of VP1 (immunofluorescence imaging)” value in data set [2] (3 μM, US/KY/14-18953, MOI = 1, vs DMSO control) is reported as “significantly reduced”. In addition, in data set [3] (3 μM), the “VP1 expression (western blot)” value was “nearly completely inhibited”.
In the case of `CN(C)CCNC(=O)c1cc(-c2cccs2)nc2ccccc12` [Compound 12a, N-[2-(dimethylamino)ethyl]-2-(thiophen-2-yl)quinoline-4-carboxamide], the “SI (selectivity index, CC50/EC50)” value in data set [1] is recorded as over 600. For the same compound, the “VP1 protein expression” value in data set [2] was “completely blocked”. Moreover, the “VP1 expression (western blot)” value in data set [3] (1 μM) is on record as “completely blocked”.
